Data taken from patent publication US12191014B1, “Personal analysis and chronotherapy” (CERNER INNOVATION, INC., priority 2013, dated 2025).

Key:
[1] = test system: blood pressure of patients; settings: cited from earlier work; for effect on asleep versus awake SBP and DBP means: ACEI, evening or bedtime administration; for therapeutic effect on sleeping BP: ARB, bedtime in comparison with morning ingestion schedule
blood pressure patient = test: Example 1: evaluation pack trial of Losartan formulations against diagnostic targets; type: in vivo, human
Procedure: Example 1: A blood pressure patient is currently medicated, but appears to be medicated at an insufficient level. For example, the patient has been taking 50 mg of Losartan at various ingestion times, but has experienced some severe headaches and nose bleeds in the afternoon particularly on stressful days.
In an embodiment, the evaluation package includes four different formulations labeled A, B, 3A, and 5A arranged in separable columns of constant medication 1027, 1028, 1025, 1030, and 1010, that may be separated by manually tearing package 1000 along perforated divisions 1096, 1097, 1098, and 1099. In an embodiment, dose pack 1000 is formed by selectively applying an adhesive to a foil backing layer to adhere the foil to transparent plastic front layer 1012 containing pills such as 1013 as shown in FIG. 10. In an embodiment, a label such as “5A” is provided on the dose itself such as label 1015 on pill 1013 as viewable in dose display container 1014, and/or on the packaging in label 1011 of constant formulation dosepack represented in column 1010. Advantageously, a patient tears along a perforation 1096 while taking dose A, and only need carry a single column such as 1027 while taking an “A” formulation dose. Similarly columns 1026, 1025, 1030 and 1010 are separable by perforations 1096, 1097, 1098 and 1099. An embodiment of a constant formulation dose pack has 32 cycles of dosage. An embodiment of a constant formulation dose pack has 10 cycles of dosage.
In an embodiment, the “A” formulation corresponds to a pulsatile application of 100 mg Losartan that applies medication nominally 20 minutes after ingestion, the “3A” formulation delays application of 100 mg of Losartan to 3 hours after ingestion. The “5A” formulation delays application of 100 mg of Losartan to 5 hours after ingestion. The “B” formulation is 5 mg amlodipine besylate that applies medication approximately 5 hours after ingestion. In an embodiment the dose sequence spectrum is chosen to center the medication application around a typical peak level. For example, with blood pressure medicine application, a peak plasma level between midnight and 6 a.m. would provide dosage delays centered about 3 a.m. for a patient who is thought to be a normal dipper. An embodiment puts at least one dosage application time in a period of normal peak, for example, between midnight and 6 a.m. for blood pressure application. In an embodiment, different dose levels are provided, such as a trial with 50 mg Losartan, or 150 mg Losartan for the same application time.
Turning now to FIG. 2, there is depicted in 100 a method for a computer to execute a method of personal health evaluation. At 205, a patient manager such as 140 is configured through a clinician evaluation template to present results to the patient on patient interface 141 after the clinician has released the information to the patient for viewing, explanation. In an embodiment a template includes a monitor identifier, a patient identifier, such as social security number and/or full name and zip code, and an identification code for the dose pack such as product ID code “AB27YAM” shown in identifier 1050. In an embodiment the template includes a set of patient instructions to guide patient through the use of the monitor device. In an embodiment, the patient is instructed to wear the monitor continuously with unmonitored stretches of no greater than a half an hour. […] In an embodiment, the template includes information such as gender (male or female), weight, height, body mass index, other conditions, other mediations, patient history, patient age, a diagnostic target, a clinical input to be monitored, a period statistic to be measured, a period variability measure to be evaluated, a variation, etc. […]

hypertensive subjects = test: 32-day losartan administration-time study with NIBP/SBP time series and spectral analysis; type: in vivo, human
Procedure: Because dipping status is determined by (a) sleep BP and (b) awake BP, it might be expected that the 2 determinants would have equal weight. […] Although there is evidence that an extreme dipping pattern may lead to nocturnal cerebral ischemia, there is also evidence that nondippers are at greater risk for cardiovascular morbidity than dippers, both for cardiovascular events and for progression of kidney disease. […] This is exactly what we have observed with losartan.
To illustrate the advantages of the present technology, a, a series of alternate schedules for administering a single, strong 100 mg oral dose of the rapidly-absorbed angiotensin receptor blocker, losartan, were explored (03:00; 09:00; 21:00; etc.). Subjects […] informed consent according to applicable U.S. law and regulations. Baseline drug-holiday NIBP measurements were collected in each subject for a period of 32 days. Subjects who had other comorbid health conditions besides hypertension were excluded, as were subjects who required two or more antihypertensive medications for blood pressure control.
Under the experimental protocol, a two-week wash-out interval was interposed between a 32-day treatment period with one administration time and the next 32-day period. Subjects were randomized as to which administration time sequence.
All of the 32-day timing regimens were monitored so as to establish administration timing compliance with a timing precision of +15 min. […]
Records were randomly selected from a patient health records data warehouse, which is derived from Cerner electronic health record (EHR) from 100% of episodes of care that are incident upon the participating health institutions. […] The SBP data is cast into the form of a time series, and analyzed the sequences using the open-source R statistical packages psd, seewave, and tuneR. […]

In the case of `CCOC(=O)[C@H](CCc1ccccc1)N[C@H]1CCc2ccccc2N(CC(=O)O)C1=O` [benazepril], the “effect on asleep versus awake SBP and DBP means” value [1] is listed as “more marked effect on the asleep than awake”.

For `C[C@H](CS)C(=O)N1CCC[C@H]1C(=O)O` [captopril], the “effect on asleep versus awake SBP and DBP means” value [1] is given as “more marked effect on the asleep than awake”.

For `CCOC(=O)[C@H](CCc1ccccc1)N[C@@H](C)C(=O)N1CCC[C@H]1C(=O)O` [enalapril], the “effect on asleep versus awake SBP and DBP means” value [1] is listed as “more marked effect on the asleep than awake”.

For `CCCCC1=NC2(CCCC2)C(=O)N1Cc1ccc(-c2ccccc2-c2nnn[nH]2)cc1` [irbesartan], the “therapeutic effect on sleeping BP” value [1] is given as “greater therapeutic effect on sleeping BP”.

For `NCCCC[C@H](N[C@@H](CCc1ccccc1)C(=O)O)C(=O)N1CCC[C@H]1C(=O)O` [lisinopril], the “effect on asleep versus awake SBP and DBP means” value [1] is given as “more marked effect on the asleep than awake”.

In the case of `CCCCc1nc(Cl)c(CO)n1Cc1ccc(-c2ccccc2-c2nn[nH]n2)cc1` [losartan], the “therapeutic effect on sleeping BP” value [1] is listed as “greater therapeutic effect on sleeping BP”, the dipping pattern (blood pressure patient; 100 mg at 21:00) is listed as “achieved a normal dipping pattern” and the “entropy relative to untreated regimen” value (blood pressure patient; 100 mg at 21:00) is listed as “greatly improved entropy”. For the same compound, the entropy versus target (blood pressure patient; 100 mg at 21:00) was “acceptable entropy”, the “max SBP versus target” value (blood pressure patient; 100 mg at 21:00) was “unacceptable max SBP” and the “range of SBP versus target” value (blood pressure patient; 100 mg at 21:00) was “unacceptable range”. The rolloff (blood pressure patient; 100 mg at 21:00) was “acceptable rolloff improvement”, the significance versus target (blood pressure patient; 100 mg at 21:00) was “acceptable significance” and the stability of rhythm (blood pressure patient; 100 mg at 21:00) was “improved stability of rhythm”. For the same compound, the desired targets met (blood pressure patient; 100 mg at 21:00, compared with untreated regimen) was 5 of 7, the “reduction in average blood pressure” value (hypertensive subjects; 100 mg oral dose, all dosing schedules (03:00; 09:00; 21:00), 32-day treatment periods) was “reduction in average blood pressure” and the “phase-slips between circadian BP and drug administration” value (hypertensive subjects; 100 mg, 21:00 administration time) was “occasionally detected”. For the same compound, the “normalization of dipping pattern” value (hypertensive subjects; administration such that peak plasma levels occur prior to midnight or prior to 06:00) was “can normalize extreme dippers, non-dippers, and risers and convert them to normal dippers”.

In the case of `CCC[C@H](N[C@@H](C)C(=O)N1[C@H](C(=O)O)C[C@@H]2CCCC[C@@H]21)C(=O)OCC` [perindopril], the “effect on asleep versus awake SBP and DBP means” value [1] is given as “more marked effect on the asleep than awake”.

For `CCOC(=O)[C@H](CCc1ccccc1)N[C@@H](C)C(=O)N1Cc2ccccc2C[C@H]1C(=O)O` [quinapril], the “effect on asleep versus awake SBP and DBP means” value [1] is listed as “more marked effect on the asleep than awake”.

For `CCOC(=O)[C@H](CCc1ccccc1)N[C@@H](C)C(=O)N1[C@H](C(=O)O)C[C@@H]2CCC[C@@H]21` [ramipril], the “effect on asleep versus awake SBP and DBP means” value [1] is listed as “more marked effect on the asleep than awake”.

For `CCOC(=O)[C@H](CCc1ccccc1)N[C@@H](C)C(=O)N1CC2(C[C@H]1C(=O)O)SCCS2` [spirapril], the “effect on asleep versus awake SBP and DBP means” value [1] is listed as “more marked effect on the asleep than awake”.

For `CCCc1nc2c(C)cc(-c3nc4ccccc4n3C)cc2n1Cc1ccc(-c2ccccc2C(=O)O)cc1` [telmisartan], the “therapeutic effect on sleeping BP” value [1] is given as “greater therapeutic effect on sleeping BP”.

For `CCOC(=O)[C@H](CCc1ccccc1)N[C@@H](C)C(=O)N1[C@H](C(=O)O)C[C@H]2CCCC[C@@H]21` [trandolapril], the “effect on asleep versus awake SBP and DBP means” value [1] is listed as “more marked effect on the asleep than awake”.

For `CCCCC(=O)N(Cc1ccc(-c2ccccc2-c2nnn[nH]2)cc1)[C@H](C(=O)O)C(C)C` [valsartan], the “therapeutic effect on sleeping BP” value [1] is listed as “greater therapeutic effect on sleeping BP”.

For `C[C@H](CSC(=O)c1ccccc1)C(=O)N1C[C@@H](Sc2ccccc2)C[C@H]1C(=O)O` [zofenopril], the “effect on asleep versus awake SBP and DBP means” value [1] is listed as “more marked effect on the asleep than awake”.
